Source: patent US10450346B2, “Immunotherapy against several tumors of the blood, in particular chronic lymphoid leukemia (CLL)” (Immatics biotechnologies GmbH, priority 2014, dated 2019)
One block for each substance: values may come before it.

Assays:
[1] = system: CD8+ T cells of healthy donors; assay: In vitro T-cell priming with aAPCs loaded with peptide/MHC complexes and anti-CD28 antibody; format: cell-based, human; settings: pMHC multimer readout
Method: In order to obtain information regarding the immunogenicity of the TUMAPs of the present invention, the inventors performed investigations using an in vitro T-cell priming assay based on repeated stimulations of CD8+ T cells with artificial antigen presenting cells (aAPCs) loaded with peptide/MHC complexes and anti-CD28 antibody. […]
Generation of pMHC/anti-CD28 coated beads, T-cell stimulations and readout was performed in a highly defined in vitro system using four different pMHC molecules per stimulation condition and 8 different pMHC molecules per readout condition. […]
800.000 beads/200 μl were coated in 96-well plates in the presence of 4×12.5 ng different biotin-pMHC, washed and 600 ng biotin anti-CD28 were added subsequently in a volume of 200 μl. […] For the pMHC multimer readout using 8 different pMHC molecules per condition, a two-dimensional combinatorial coding approach was used as previously described (Andersen et al., Nat. Protoc. 7 (2012): 891-902) with minor modifications encompassing coupling to 5 different fluorochromes. […] Peptide specific cells were calculated as percentage of total CD8+cells. […] In vitro priming of specific multimer+ CD8+ lymphocytes was detected by comparing to negative control stimulations.

MHC class I = assay: MHC binding assay (peptide-ligand exchange, β2m ELISA); parameters: species or system human; settings: yield of UV-exchange reaction
From the text: Candidate peptides for T cell based therapies according to the present invention were further tested for their MHC binding capacity (affinity). The individual peptide-MHC complexes were produced by peptide-ligand exchange, where a cleavage-sensitive peptide is cleaved, and exchanged with the peptide of interest as analyzed. Only peptide candidates that can effectively bind and stabilize the peptide-receptive MHC molecules prevent dissociation of the MHC complexes. To determine the yield of the exchange reaction, an ELISA was performed based on the detection of the light chain (β2m) of stabilized MHC complexes. The assay was performed as generally described in Rodenko et al. (Rodenko et al., Nat Protoc. 1 (2006): 1120-1132).
96 well MAXISorp plates (NUNC) were coated over night with 2 ug/ml streptavidin in PBS at room temperature, washed 4× and blocked for 1 h at 37° C. in 2% BSA containing blocking buffer. Refolded HLA-A*0201/MLA-001 monomers served as standards, covering the range of 15-500 ng/ml. Peptide-MHC monomers of the UV-exchange reaction were diluted 100 fold in blocking buffer. Samples were incubated for 1 h at 37° C., washed four times, incubated with 2 ug/ml HRP conjugated anti-β2m for 1 h at 37° C., washed again and detected with TMB solution that is stopped with […]. Absorption was measured at 450 nm. […]

[2] = system: peptide-specific CD8+ T cells of CLL patient PBMC; assay: Intracellular IFN-γ and TNF-α staining; format: cell-based, human; settings: peptide stimulated CLL patient PBMC
Method: PBMC from CLL patients and healthy volunteers were cultured in RPMI1640 medium (Gibco) supplemented with 10% pooled human serum (PHS, produced in-house), […] β-mercaptoethanol (Roth, Karlsruhe, Germany) and 1% penicillin/streptomycin (GE). For CD8^+ T cell stimulation, PBMC were thawed and pulsed with 1 μg/ml per peptide. Peptide-pulsed PBMC (5-6×10^6 cells/ml) were cultured at 37° C. and 5% CO2 for 12 days. On day 0 and day […] IL-4 (R&D Systems, Minneapolis, Minn., USA) and 5 ng/ml IL-7 (Promokine, Heidelberg, Germany) were added to the culture medium. On days 3, 5, 7 and 9, 2 ng/ml IL-2 (R&D Systems) were added to the culture medium. Peptide-stimulated PBMC were functionally characterized by ELISPOT assays on day 12 and by intracellular cytokine staining on day 13 respectively. For CD4^+ T-cell stimulation, culture was performed as described for CD8^+ T cells with 2 modifications: pulsing was carried out with 10 μg/ml of HLA class II peptide and no IL-4 and IL-7 was added.
The frequency and functionality of peptide-specific CD8^+ T cells was analyzed by intracellular IFN-γ and TNF-α staining. PBMC were pulsed with 1 μg/ml of individual peptide and incubated in the presence of 10 μg/ml Brefeldin A (Sigma, St. Louis, Mo., USA) and 10 μg/ml GolgiStop (BD) for 6-8 h. […] Samples were analyzed on a FACS Canto II.

CLL patient CD8+ T cells = assay: HLA:peptide tetramer staining; format: cell-based, human
Method: The frequency of peptide-specific CD8^+ T cells was determined by staining with anti-CD8 and HLA:peptide-tetramer-PE

Substance: KFAEEFYSF (listed as Homo sapiens) [SEQ ID NO: 20]
in vitro T-cell responses, positive donors of tested donors [1]: 2 of 5

Peptide exchange (MHC class I binding score) (MHC class I): ++++ (>=75% = ++++)
Substance: 239 (SENAFYLSP; listed as Homo sapiens) [compound 239]

Substance: SSSGLHPPK (listed as Homo sapiens) [SEQ ID NO: 77]
intracellular cytokine staining for IFNγ and TNFα [2]: confirmed
tetramer staining of CD8+ T cells (CLL patient CD8+ T cells): confirmed

Peptide exchange (MHC class I binding score) (MHC class I): ++++ (>=75% = ++++)
Substance: 229 (FRVGNVQEL; listed as Homo sapiens) [compound 229]
